A short description of series [1]: Solubility testing of exendin-4 derivatives (HPLC-UV of supernatant). The settings on record: pH 7.4. The series is classed as physicochemical. How it is done:
Prior to the testing of solubility and stability of a peptide batch, its content was determined. Therefore, two parameters were investigated, its purity (HPLC-UV) and the amount of salt load of the batch (ion chromatography).
HPLC-UV was performed after 2 h of gentle agitation from the supernatant, which was obtained by 20 min of centrifugation at 4000 rpm.

In series [2] the target is T1, human glucagon receptor (hGLUC R) (Homo sapiens, UniProt P47871).
T1 construct: expressed in transfected cells; host or cells: HEK-293
T1 sequence (P47871 26-477): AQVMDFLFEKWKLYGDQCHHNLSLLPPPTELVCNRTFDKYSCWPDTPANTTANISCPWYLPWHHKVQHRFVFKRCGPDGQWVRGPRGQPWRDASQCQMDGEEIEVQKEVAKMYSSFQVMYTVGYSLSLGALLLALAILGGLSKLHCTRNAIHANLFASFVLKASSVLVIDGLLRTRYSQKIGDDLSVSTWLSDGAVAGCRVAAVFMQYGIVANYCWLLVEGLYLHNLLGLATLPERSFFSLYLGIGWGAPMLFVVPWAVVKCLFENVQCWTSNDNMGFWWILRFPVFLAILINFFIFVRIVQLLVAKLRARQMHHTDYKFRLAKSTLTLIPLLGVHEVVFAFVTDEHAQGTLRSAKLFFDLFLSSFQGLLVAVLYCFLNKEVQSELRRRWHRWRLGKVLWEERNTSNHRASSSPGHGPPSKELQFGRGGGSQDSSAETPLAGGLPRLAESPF
The series is described as follows: cAMP response (HTRF) of HEK-293 cells stably expressing human glucagon receptor. The series is classed as cell-based. The settings on record: Table 4; read-out: EC50 hGLUC R. How it is done:
(§1) cAMP content of cells was determined using a kit from Cisbio Corp. (cat. no. 62AM4PEC) based on HTRF (Homogenous Time Resolved Fluorescence). For preparation, cells were split into T175 culture flasks and grown overnight to near confluency in medium (DMEM/10% FBS). Medium was then removed and cells washed with PBS lacking calcium and magnesium, followed by proteinase treatment with accutase (Sigma-Aldrich cat. no. A6964). Detached cells were washed and resuspended in assay buffer (1×HBSS; 20 mM HEPES, 0.1% BSA, 2 mM IBMX) and cellular density determined. They were then diluted to 400000 cells/ml and 25 μl-aliquots dispensed into the wells of 96-well plates. For measurement, 25 μl of test compound in assay buffer was added to the wells, followed by incubation for 30 minutes at room temperature.

Series [3] concerns the target T2, human GLP-1 receptor (hGLP-1 R) (Homo sapiens, UniProt P43220).
T2 construct: expressed in transfected cells; host or cells: HEK-293
The series is described as follows: cAMP response (HTRF) of HEK-293 cells stably expressing human GLP-1 receptor. It counts as cell-based. Particulars: Table 4. The method, then: as §1, with “temperature. After addition of HTRF reagents diluted in lysis buffer (kit components), the plates were incubated for 1 hr, followed by measurement of the fluorescence ratio at 665/620 nm. In vitro potency of agonists was quantified by determining the concentrations that caused 50% activation of maximal response (EC50).” for “temperature.”
A general note: Time-resolved FRET reads energy transfer from a long-lived donor to a nearby acceptor.

Non-standard residues stand in square brackets, D forms with d. Residues, ends and D or L forms follow the SMILES beside them. Ala(4-thiazolyl) = N[C@@H](Cc1cscn1)C(=O)O; Chg = N[C@H](C(=O)O)C1CCCCC1; Tle = CC(C)(C)[C@H](N)C(=O)O; Nle = CCCC[C@H](N)C(=O)O

T2 sequence (P43220 24-463): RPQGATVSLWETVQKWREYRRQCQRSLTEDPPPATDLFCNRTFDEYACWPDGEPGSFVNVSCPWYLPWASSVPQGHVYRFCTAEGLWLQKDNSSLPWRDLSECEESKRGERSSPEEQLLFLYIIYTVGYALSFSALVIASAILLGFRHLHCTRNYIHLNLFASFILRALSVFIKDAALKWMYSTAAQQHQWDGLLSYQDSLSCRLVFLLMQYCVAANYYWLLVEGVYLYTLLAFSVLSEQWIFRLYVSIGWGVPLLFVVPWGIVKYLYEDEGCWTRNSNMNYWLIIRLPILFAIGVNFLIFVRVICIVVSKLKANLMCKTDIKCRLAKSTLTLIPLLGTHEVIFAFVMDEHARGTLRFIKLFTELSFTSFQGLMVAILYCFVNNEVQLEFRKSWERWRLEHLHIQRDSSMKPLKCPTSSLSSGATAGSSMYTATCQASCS

The molecule `CC[C@H](C)[C@H](NC(=O)[C@H](Cc1ccccc1)NC(=O)[C@H](CCC(=O)O)NC(=O)[C@H](CCC(N)=O)NC(=O)[C@H](C)NC(=O)[C@H](CCCNC(=N)N)NC(=O)[C@H](CCCNC(=N)N)NC(=O)[C@H](CO)NC(=O)[C@H](CCC(=O)O)NC(=O)[C@H](CC(C)C)NC(=O)[C@H](CCC(N)=O)NC(=O)[C@H](CCCCN)NC(=O)[C@H](CO)NC(=O)[C@@H](NC(=O)[C@H](CC(=O)O)NC(=O)[C@H](CO)NC(=O)[C@@H](NC(=O)[C@H](Cc1ccccc1)NC(=O)[C@@H](NC(=O)CNC(=O)[C@H](CCC(N)=O)NC(=O)[C@H](CO)NC(=O)[C@@H](N)Cc1cscn1)[C@@H](C)O)[C@@H](C)O)C(C)C)C(=O)N[C@@H](CCC(=O)O)C(=O)N[C@@H](Cc1c[nH]c2ccccc12)C(=O)N[C@@H](CC(C)C)C(=O)N[C@@H](CC(C)C)C(=O)N[C@@H](C)C(=O)NCC(=O)NCC(=O)N1CCC[C@H]1C(=O)N[C@@H](CCC(=O)O)C(=O)N[C@@H](CO)C(=O)NCC(=O)N[C@@H](C)C(=O)N1CCC[C@H]1C(=O)N1CCC[C@H]1C(=O)N1CCC[C@H]1C(=O)N[C@@H](CO)C(=O)O` [SEQ ID NO 9, Tza-SQGTFTSDVSKQLESRRAQEFIEWLLAGGPESGAPPPS-OH] (H-[Ala(4-thiazolyl)]SQGTFTSDVSKQLESRRAQEFIEWLLAGGPESGAPPPS-OH) showed a solubility at 2 h in series [1] above 10000 µg/mL. The EC50 in series [2] came to 2.2 pM.

For `CC[C@H](C)[C@H](NC(=O)[C@H](Cc1ccccc1)NC(=O)[C@H](CC(=O)O)NC(=O)[C@H](CCC(N)=O)NC(=O)[C@H](C)NC(=O)[C@H](CCCNC(=N)N)NC(=O)[C@H](CCCNC(=N)N)NC(=O)[C@H](CO)NC(=O)[C@H](CCC(=O)O)NC(=O)[C@H](CC(C)C)NC(=O)[C@H](CCC(N)=O)NC(=O)[C@H](CCCCN)NC(=O)[C@H](CO)NC(=O)[C@@H](NC(=O)[C@H](CC(=O)O)NC(=O)[C@H](CO)NC(=O)[C@@H](NC(=O)[C@H](Cc1ccccc1)NC(=O)[C@@H](NC(=O)CNC(=O)[C@H](CCC(N)=O)NC(=O)[C@H](CO)NC(=O)[C@@H](N)Cc1cscn1)[C@@H](C)O)[C@@H](C)O)C1CCCCC1)C(=O)N[C@@H](CCC(=O)O)C(=O)N[C@@H](Cc1c[nH]c2ccccc12)C(=O)N[C@@H](CC(C)C)C(=O)N[C@@H](CC(C)C)C(=O)N[C@@H](C)C(=O)N[C@H](C(=O)NCC(=O)N1CCC[C@H]1C(=O)N[C@@H](CCC(=O)O)C(=O)N[C@@H](CO)C(=O)NCC(=O)N[C@@H](C)C(=O)N1CCC[C@H]1C(=O)N1CCC[C@H]1C(=O)N1CCC[C@H]1C(=O)N[C@@H](CO)C(=O)O)[C@@H](C)O` [SEQ ID NO 23, Tza-S-Q-G-T-F-T-S-D-Chg-SKQLESRRAQDFIEWLLATGPESGAPPPS-OH] (H-[Ala(4-thiazolyl)]SQGTFTSD[Chg]SKQLESRRAQDFIEWLLATGPESGAPPPS-OH; N-terminus assumed), the solubility at 2 h in series [1] is above 10000 µg/mL.

With `CCCC[C@H](NC(=O)[C@H](CCC(N)=O)NC(=O)[C@H](CCCCN)NC(=O)[C@H](CO)NC(=O)[C@@H](NC(=O)[C@H](CC(=O)O)NC(=O)[C@H](CO)NC(=O)[C@@H](NC(=O)[C@H](Cc1ccccc1)NC(=O)[C@@H](NC(=O)CNC(=O)[C@H](CCC(N)=O)NC(=O)[C@H](CO)NC(=O)[C@@H](N)Cc1cscn1)[C@@H](C)O)[C@@H](C)O)C1CCCCC1)C(=O)N[C@@H](CCC(=O)O)C(=O)N[C@@H](CO)C(=O)N[C@@H](CCCNC(=N)N)C(=O)N[C@@H](CCCNC(=N)N)C(=O)N[C@@H](C)C(=O)N[C@@H](CCC(N)=O)C(=O)N[C@@H](CCC(=O)O)C(=O)N[C@@H](Cc1ccccc1)C(=O)N[C@H](C(=O)N[C@@H](CCC(=O)O)C(=O)N[C@@H](Cc1c[nH]c2ccccc12)C(=O)N[C@@H](CC(C)C)C(=O)N[C@@H](CC(C)C)C(=O)N[C@@H](C)C(=O)N[C@H](C(=O)NCC(=O)N1CCC[C@H]1C(=O)N[C@@H](CCC(=O)O)C(=O)N[C@@H](CO)C(=O)NCC(=O)N[C@@H](C)C(=O)N1CCC[C@H]1C(=O)N1CCC[C@H]1C(=O)N1CCC[C@H]1C(=O)N[C@@H](CO)C(=O)O)[C@@H](C)O)[C@@H](C)CC` [SEQ ID NO 24, Tza-S-Q-G-T-F-T-S-D-Chg-S-K-Q-Nle-ESRRAQEFIEWLLATGPESGAPPPS-OH] (H-[Ala(4-thiazolyl)]SQGTFTSD[Chg]SKQ[Nle]ESRRAQEFIEWLLATGPESGAPPPS-OH), the solubility at 2 h in series [1] was above 10000 µg/mL.

Consider `CCCC[C@H](NC(=O)[C@H](CCC(N)=O)NC(=O)[C@H](CCCCN)NC(=O)[C@H](CO)NC(=O)[C@@H](NC(=O)[C@H](CC(=O)O)NC(=O)[C@H](CO)NC(=O)[C@@H](NC(=O)[C@H](Cc1ccccc1)NC(=O)[C@@H](NC(=O)CNC(=O)[C@H](CCC(N)=O)NC(=O)[C@H](CO)NC(=O)[C@@H](N)Cc1cscn1)[C@@H](C)O)[C@@H](C)O)C1CCCCC1)C(=O)N[C@@H](CCC(=O)O)C(=O)N[C@@H](CO)C(=O)N[C@@H](CCCNC(=N)N)C(=O)N[C@@H](CCCNC(=N)N)C(=O)N[C@@H](C)C(=O)N[C@@H](CCC(N)=O)C(=O)N[C@@H](CC(=O)O)C(=O)N[C@@H](Cc1ccccc1)C(=O)N[C@H](C(=O)N[C@@H](CCC(=O)O)C(=O)N[C@@H](Cc1c[nH]c2ccccc12)C(=O)N[C@@H](CC(C)C)C(=O)N[C@@H](CC(C)C)C(=O)N[C@@H](C)C(=O)N[C@H](C(=O)NCC(=O)N1CCC[C@H]1C(=O)N[C@@H](CCC(=O)O)C(=O)N[C@@H](CO)C(=O)NCC(=O)N[C@@H](C)C(=O)N1CCC[C@H]1C(=O)N1CCC[C@H]1C(=O)N1CCC[C@H]1C(=O)N[C@@H](CO)C(=O)O)[C@@H](C)O)[C@@H](C)CC` [SEQ ID NO 20, Tza-S-Q-G-T-F-T-S-D-Chg-S-K-Q-Nle-ESRRAQDFIEWLLATGPESGAPPPS-OH] (H-[Ala(4-thiazolyl)]SQGTFTSD[Chg]SKQ[Nle]ESRRAQDFIEWLLATGPESGAPPPS-OH; N-terminus assumed), for which, in series [1] (2 h), the “Solubility (pH7.4) [mg/ml]” value was above 10.0 mg/ml.

For `CC[C@H](C)[C@H](NC(=O)[C@H](Cc1ccccc1)NC(=O)[C@H](CCC(=O)O)NC(=O)[C@H](CCC(N)=O)NC(=O)[C@H](C)NC(=O)[C@H](CCCNC(=N)N)NC(=O)[C@H](CCCNC(=N)N)NC(=O)[C@H](CO)NC(=O)[C@H](CCC(=O)O)NC(=O)[C@H](CC(C)C)NC(=O)[C@H](CCC(N)=O)NC(=O)[C@H](CCCCN)NC(=O)[C@H](CO)NC(=O)[C@@H](NC(=O)[C@H](CC(=O)O)NC(=O)[C@H](CO)NC(=O)[C@@H](NC(=O)[C@H](Cc1ccccc1)NC(=O)[C@@H](NC(=O)CNC(=O)[C@H](CCC(N)=O)NC(=O)[C@H](CO)NC(=O)[C@@H](N)Cc1cscn1)[C@@H](C)O)[C@@H](C)O)C(C)C)C(=O)N[C@@H](CCC(=O)O)C(=O)N[C@@H](Cc1c[nH]c2ccccc12)C(=O)N[C@@H](CC(C)C)C(=O)N[C@@H](CC(C)C)C(=O)N[C@@H](C)C(=O)N[C@H](C(=O)NCC(=O)N1CCC[C@H]1C(=O)N[C@@H](CCC(=O)O)C(=O)N[C@@H](CO)C(=O)NCC(=O)N[C@@H](C)C(=O)N1CCC[C@H]1C(=O)N1CCC[C@H]1C(=O)N1CCC[C@H]1C(=O)N[C@@H](CO)C(=O)O)[C@@H](C)O` [SEQ ID NO 7, Tza-SQGTFTSDVSKQLESRRAQEFIEWLLATGPESGAPPPS-OH] (H-[Ala(4-thiazolyl)]SQGTFTSDVSKQLESRRAQEFIEWLLATGPESGAPPPS-OH; N-terminus assumed), the 50% effective concentration (EC50) in series [3] came to 4190 pM; in series [2], 2.4 pM.

In the case of `CCCC[C@H](NC(=O)[C@H](CCC(N)=O)NC(=O)[C@H](CCCCN)NC(=O)[C@H](CO)NC(=O)[C@@H](NC(=O)[C@H](CC(=O)O)NC(=O)[C@H](CO)NC(=O)[C@@H](NC(=O)[C@H](Cc1ccccc1)NC(=O)[C@@H](NC(=O)CNC(=O)[C@H](CCC(N)=O)NC(=O)[C@H](CO)NC(=O)[C@@H](N)Cc1cscn1)[C@@H](C)O)[C@@H](C)O)C(C)(C)C)C(=O)N[C@@H](CCC(=O)O)C(=O)N[C@@H](CO)C(=O)N[C@@H](CCCNC(=N)N)C(=O)N[C@@H](CCCNC(=N)N)C(=O)N[C@@H](C)C(=O)N[C@@H](CCC(N)=O)C(=O)N[C@@H](CCC(=O)O)C(=O)N[C@@H](Cc1ccccc1)C(=O)N[C@H](C(=O)N[C@@H](CCC(=O)O)C(=O)N[C@@H](Cc1c[nH]c2ccccc12)C(=O)N[C@@H](CC(C)C)C(=O)N[C@@H](CC(C)C)C(=O)N[C@@H](C)C(=O)N[C@H](C(=O)NCC(=O)N1CCC[C@H]1C(=O)N[C@@H](CCC(=O)O)C(=O)N[C@@H](CO)C(=O)NCC(=O)N[C@@H](C)C(=O)N1CCC[C@H]1C(=O)N1CCC[C@H]1C(=O)N1CCC[C@H]1C(=O)N[C@@H](CO)C(=O)O)[C@@H](C)O)[C@@H](C)CC` [SEQ ID NO 25, Tza-S-Q-G-T-F-T-S-D-Tle-S-K-Q-Nle-ESRRAQEFIEWLLATGPESGAPPPS-OH] (H-[Ala(4-thiazolyl)]SQGTFTSD[Tle]SKQ[Nle]ESRRAQEFIEWLLATGPESGAPPPS-OH; N-terminus assumed), the solubility at 2 h in series [1] was above 10000 µg/mL.

What is called solubility is the dissolved amount per volume that the medium holds. A word on the EC50: it is the concentration giving half of the maximal effect.

Values taken from patent publication US9932381B2, “Exendin-4 derivatives as selective glucagon receptor agonists” (priority 2014, dated 2018).
